Data on three compounds can be found in publication PMC4457528, “Identification of Novel Small Molecule Inhibitors of Oncogenic RET Kinase” (PLoS ONE, 2015).

Like-named read-outs stand apart in the source and are kept apart here. Where only a bound is given, the exact number is not on record here.

Experiment in all cases: KinomeScan kinase panel, single concentration 10 µM
Common to all, as to format: binding

Assay [1] deals with T1, KinomeScan kinase panel (Homo sapiens, UniProt O14578).
T1 construct: purchased DiscoveRx (KinomeScan)
The settings on record: CIT, 10 µM.

Assay [2] has as its target T2, KinomeScan kinase panel (Homo sapiens, UniProt P78356).
T2 construct: purchased DiscoveRx (KinomeScan)
T2 sequence (P78356 1-416): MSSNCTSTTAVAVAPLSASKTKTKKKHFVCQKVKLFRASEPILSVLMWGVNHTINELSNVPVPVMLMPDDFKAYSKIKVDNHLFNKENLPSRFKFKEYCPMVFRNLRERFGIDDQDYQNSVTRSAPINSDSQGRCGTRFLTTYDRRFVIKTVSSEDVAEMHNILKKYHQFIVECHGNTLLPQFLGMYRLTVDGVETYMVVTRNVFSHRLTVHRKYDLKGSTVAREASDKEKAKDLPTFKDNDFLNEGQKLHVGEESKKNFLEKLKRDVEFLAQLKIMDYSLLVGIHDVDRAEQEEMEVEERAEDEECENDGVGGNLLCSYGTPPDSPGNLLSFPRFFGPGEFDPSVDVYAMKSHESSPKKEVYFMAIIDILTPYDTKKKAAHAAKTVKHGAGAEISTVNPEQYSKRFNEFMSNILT
The settings on record: PIP5K2B, 10 µM; read-out: score (%).

For assay [3], the target named is T3, KinomeScan kinase panel (Homo sapiens, UniProt Q8N4C8).
T3 construct: purchased DiscoveRx (KinomeScan)
T3 sequence (Q8N4C8 whole entry): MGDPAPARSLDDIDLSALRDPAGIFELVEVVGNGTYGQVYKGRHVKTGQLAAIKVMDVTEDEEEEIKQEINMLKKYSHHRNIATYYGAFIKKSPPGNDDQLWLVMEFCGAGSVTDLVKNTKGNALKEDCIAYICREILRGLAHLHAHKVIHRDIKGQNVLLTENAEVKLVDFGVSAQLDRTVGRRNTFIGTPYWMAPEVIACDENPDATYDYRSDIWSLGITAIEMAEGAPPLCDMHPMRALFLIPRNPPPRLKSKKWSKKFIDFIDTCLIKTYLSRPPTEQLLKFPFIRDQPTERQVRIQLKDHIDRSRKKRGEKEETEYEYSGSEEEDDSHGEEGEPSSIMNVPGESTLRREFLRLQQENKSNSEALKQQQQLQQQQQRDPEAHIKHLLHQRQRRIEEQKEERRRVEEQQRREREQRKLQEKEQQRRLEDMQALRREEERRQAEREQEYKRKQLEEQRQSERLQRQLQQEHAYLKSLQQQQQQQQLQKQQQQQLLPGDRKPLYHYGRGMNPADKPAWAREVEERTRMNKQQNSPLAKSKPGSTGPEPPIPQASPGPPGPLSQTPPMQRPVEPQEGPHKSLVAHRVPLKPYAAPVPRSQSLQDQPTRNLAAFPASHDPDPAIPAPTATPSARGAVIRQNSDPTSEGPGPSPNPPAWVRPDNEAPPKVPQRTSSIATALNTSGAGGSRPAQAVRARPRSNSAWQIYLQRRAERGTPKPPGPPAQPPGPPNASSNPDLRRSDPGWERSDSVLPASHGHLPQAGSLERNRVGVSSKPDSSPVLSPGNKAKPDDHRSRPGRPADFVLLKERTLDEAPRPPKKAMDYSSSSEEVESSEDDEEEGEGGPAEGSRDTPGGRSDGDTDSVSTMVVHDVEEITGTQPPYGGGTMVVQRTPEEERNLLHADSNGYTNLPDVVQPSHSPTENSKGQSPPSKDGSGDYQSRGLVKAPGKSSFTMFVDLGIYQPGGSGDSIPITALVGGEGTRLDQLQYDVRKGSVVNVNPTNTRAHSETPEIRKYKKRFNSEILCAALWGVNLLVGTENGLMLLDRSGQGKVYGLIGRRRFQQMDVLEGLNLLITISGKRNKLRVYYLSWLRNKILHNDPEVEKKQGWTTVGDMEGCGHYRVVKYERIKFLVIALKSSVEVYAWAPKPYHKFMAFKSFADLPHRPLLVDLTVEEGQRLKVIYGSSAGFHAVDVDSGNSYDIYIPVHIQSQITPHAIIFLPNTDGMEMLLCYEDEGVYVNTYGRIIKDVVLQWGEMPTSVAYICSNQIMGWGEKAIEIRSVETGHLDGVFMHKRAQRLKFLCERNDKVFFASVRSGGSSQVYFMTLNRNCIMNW
The settings on record: MINK, 10 µM; read-out: score (%).

In assay [4] the target is T4, KinomeScan kinase panel (Homo sapiens, UniProt Q16832).
T4 construct: purchased DiscoveRx (KinomeScan)
T4 sequence (Q16832 22-855): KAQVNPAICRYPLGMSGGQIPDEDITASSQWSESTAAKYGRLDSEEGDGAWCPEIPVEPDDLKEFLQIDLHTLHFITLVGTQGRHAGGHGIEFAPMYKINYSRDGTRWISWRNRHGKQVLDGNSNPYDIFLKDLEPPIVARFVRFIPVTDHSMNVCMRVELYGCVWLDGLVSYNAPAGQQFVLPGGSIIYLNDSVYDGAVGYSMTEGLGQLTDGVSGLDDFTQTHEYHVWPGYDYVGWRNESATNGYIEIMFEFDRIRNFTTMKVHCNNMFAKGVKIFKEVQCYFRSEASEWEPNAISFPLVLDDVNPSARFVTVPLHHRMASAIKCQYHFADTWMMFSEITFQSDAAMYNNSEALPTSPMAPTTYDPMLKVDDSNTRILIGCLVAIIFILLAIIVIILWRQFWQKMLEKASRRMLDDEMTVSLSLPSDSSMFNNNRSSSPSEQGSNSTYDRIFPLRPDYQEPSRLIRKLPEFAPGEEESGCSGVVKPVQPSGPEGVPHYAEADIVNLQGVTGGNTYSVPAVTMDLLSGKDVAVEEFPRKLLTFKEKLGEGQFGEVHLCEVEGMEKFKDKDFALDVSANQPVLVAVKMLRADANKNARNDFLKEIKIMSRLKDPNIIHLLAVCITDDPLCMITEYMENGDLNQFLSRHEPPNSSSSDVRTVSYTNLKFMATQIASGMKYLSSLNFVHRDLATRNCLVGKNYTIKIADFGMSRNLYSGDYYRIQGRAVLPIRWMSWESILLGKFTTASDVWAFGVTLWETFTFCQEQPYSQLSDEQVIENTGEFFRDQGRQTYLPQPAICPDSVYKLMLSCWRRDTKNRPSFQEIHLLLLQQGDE
The note with it: DDR2, 10 µM; read-out: score (%).

For assay [5], the target named is T5, KinomeScan kinase panel (Homo sapiens, UniProt Q86UX6).
T5 construct: purchased DiscoveRx (KinomeScan)
The note with it: kinase YANK3; 10 µM; read-out: score (%).

The target of assay [6] is T6, KinomeScan kinase panel (Homo sapiens, UniProt Q6DT37).
T6 construct: purchased DiscoveRx (KinomeScan)
The note with it: DMPK2, 10 µM; read-out: score (%).

In assay [7] the target is T7, KinomeScan kinase panel (Homo sapiens, UniProt P54762).
T7 construct: purchased DiscoveRx (KinomeScan)
T7 sequence (P54762 18-984): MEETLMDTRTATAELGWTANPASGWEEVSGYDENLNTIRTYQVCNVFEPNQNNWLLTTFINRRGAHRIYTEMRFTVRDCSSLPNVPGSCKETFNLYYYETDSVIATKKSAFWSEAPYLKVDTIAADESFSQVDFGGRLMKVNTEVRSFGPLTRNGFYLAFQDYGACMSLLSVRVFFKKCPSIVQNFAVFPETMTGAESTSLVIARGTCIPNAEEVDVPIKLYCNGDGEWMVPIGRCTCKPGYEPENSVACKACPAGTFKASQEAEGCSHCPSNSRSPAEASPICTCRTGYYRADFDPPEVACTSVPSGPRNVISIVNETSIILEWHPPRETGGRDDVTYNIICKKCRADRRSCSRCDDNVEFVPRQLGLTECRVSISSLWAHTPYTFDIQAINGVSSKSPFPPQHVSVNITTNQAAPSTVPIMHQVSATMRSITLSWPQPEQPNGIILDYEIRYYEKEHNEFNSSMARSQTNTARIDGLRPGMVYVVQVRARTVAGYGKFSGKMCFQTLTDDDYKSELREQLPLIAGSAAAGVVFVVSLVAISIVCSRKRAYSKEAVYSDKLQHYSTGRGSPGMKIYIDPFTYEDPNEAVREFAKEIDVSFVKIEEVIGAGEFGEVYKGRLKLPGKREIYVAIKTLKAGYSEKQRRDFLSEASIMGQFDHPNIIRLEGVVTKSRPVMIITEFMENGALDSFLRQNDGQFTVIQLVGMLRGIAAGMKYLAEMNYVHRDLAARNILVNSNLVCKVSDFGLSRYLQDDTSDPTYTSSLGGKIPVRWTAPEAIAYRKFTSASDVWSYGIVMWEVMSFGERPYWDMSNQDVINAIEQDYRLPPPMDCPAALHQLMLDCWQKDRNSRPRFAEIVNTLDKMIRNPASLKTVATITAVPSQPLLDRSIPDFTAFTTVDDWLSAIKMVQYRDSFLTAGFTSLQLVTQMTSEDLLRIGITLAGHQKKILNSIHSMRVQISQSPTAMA
The settings on record: EPHB1, 10 µM; read-out: score (%).

For assay [8], the target named is T8, KinomeScan kinase panel (Homo sapiens, UniProt P23458).
T8 construct: purchased DiscoveRx (KinomeScan)
T8 sequence (P23458 whole entry): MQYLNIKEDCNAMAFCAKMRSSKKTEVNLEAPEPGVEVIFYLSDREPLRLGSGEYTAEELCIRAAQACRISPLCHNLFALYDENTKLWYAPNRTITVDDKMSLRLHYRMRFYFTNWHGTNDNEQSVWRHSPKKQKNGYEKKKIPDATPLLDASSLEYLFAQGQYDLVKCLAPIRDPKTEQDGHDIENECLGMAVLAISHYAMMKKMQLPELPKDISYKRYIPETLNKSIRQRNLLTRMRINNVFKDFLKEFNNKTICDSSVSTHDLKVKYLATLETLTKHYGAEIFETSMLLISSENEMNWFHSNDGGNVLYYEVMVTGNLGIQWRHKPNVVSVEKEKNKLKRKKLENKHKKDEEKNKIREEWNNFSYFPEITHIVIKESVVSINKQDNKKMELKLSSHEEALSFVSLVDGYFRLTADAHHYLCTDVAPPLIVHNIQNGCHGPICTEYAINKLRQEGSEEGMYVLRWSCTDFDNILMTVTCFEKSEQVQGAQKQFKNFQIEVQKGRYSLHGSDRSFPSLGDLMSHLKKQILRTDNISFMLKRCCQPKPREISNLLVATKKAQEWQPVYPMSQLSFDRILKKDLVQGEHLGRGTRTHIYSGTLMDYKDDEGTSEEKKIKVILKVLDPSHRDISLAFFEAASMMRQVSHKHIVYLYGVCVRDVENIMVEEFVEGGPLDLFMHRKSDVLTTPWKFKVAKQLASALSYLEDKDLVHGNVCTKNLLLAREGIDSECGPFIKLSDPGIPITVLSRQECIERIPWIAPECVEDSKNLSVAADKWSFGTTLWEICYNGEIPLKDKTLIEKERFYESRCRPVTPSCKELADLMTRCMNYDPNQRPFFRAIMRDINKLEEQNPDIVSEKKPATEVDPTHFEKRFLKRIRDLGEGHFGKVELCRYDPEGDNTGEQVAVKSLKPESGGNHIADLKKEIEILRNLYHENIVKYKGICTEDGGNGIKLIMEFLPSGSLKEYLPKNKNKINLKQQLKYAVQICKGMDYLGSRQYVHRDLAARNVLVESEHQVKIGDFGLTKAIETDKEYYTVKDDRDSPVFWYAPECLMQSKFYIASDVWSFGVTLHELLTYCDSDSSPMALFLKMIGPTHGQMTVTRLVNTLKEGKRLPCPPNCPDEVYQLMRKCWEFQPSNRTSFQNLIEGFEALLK

Assay [9] deals with T9, KinomeScan kinase panel (Homo sapiens, UniProt P07949).
T9 construct: purchased DiscoveRx (KinomeScan)
T9 sequence (P07949 29-1114): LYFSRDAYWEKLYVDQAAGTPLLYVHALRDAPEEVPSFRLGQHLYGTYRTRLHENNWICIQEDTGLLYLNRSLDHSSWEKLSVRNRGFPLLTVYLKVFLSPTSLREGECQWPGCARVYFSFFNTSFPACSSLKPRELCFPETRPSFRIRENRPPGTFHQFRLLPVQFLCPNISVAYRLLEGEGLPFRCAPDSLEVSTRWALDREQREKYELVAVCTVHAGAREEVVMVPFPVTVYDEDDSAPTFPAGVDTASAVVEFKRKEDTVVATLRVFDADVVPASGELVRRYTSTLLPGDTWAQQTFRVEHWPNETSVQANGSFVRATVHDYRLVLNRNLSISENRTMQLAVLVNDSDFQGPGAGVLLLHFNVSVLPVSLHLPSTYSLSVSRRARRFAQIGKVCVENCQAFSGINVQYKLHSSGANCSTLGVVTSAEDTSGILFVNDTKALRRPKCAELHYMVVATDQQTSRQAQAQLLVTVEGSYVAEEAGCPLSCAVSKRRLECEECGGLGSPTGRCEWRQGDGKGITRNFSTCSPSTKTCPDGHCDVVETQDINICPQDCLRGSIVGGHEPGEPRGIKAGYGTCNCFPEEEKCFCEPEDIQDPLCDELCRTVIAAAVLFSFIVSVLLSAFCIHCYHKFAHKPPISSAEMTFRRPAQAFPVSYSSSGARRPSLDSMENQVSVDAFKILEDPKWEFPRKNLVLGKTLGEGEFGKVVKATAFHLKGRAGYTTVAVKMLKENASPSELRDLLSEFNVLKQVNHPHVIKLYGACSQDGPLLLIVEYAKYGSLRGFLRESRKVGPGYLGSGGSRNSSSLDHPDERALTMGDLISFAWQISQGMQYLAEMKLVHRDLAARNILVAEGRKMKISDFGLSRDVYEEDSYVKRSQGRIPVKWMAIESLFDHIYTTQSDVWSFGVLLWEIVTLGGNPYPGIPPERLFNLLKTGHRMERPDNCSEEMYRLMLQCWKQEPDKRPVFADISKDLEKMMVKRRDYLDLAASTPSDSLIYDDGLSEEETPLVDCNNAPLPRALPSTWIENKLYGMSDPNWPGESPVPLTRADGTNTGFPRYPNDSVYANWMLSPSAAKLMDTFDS
The settings on record: 10 µM, read-out: score (%).

In assay [10] the target is T10, KinomeScan kinase panel (Homo sapiens, UniProt P24723).
T10 construct: purchased DiscoveRx (KinomeScan)
T10 sequence (P24723 whole entry): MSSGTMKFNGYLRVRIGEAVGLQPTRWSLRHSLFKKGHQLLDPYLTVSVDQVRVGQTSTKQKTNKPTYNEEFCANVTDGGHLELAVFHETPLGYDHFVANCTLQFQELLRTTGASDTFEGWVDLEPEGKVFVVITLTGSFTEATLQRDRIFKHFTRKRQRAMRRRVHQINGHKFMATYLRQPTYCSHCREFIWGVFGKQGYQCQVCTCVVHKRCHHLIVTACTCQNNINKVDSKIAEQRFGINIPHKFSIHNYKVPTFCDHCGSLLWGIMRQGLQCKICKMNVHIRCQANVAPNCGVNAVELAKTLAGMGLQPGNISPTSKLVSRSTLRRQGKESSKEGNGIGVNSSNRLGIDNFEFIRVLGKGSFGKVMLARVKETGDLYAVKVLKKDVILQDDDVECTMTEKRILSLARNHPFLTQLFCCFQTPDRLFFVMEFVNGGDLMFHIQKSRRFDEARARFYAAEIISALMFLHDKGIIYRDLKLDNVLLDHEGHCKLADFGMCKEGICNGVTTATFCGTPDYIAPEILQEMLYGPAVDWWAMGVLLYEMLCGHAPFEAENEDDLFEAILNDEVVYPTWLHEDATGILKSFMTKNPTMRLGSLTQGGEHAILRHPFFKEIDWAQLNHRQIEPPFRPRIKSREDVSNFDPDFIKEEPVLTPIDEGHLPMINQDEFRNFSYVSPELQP
The note with it: 10 µM, read-out: score (%).

Assay [11] deals with T11, KinomeScan kinase panel (Homo sapiens, UniProt P00519, M351T).
T11 construct: purchased DiscoveRx (KinomeScan)
The note with it: 10 µM, read-out: score (%).

Assay [12] addresses T12, KinomeScan kinase panel (Homo sapiens, UniProt Q06187).
T12 construct: purchased DiscoveRx (KinomeScan)
The note with it: BTK, 10 µM.

Where [13] appears, read: JAK1(JH1domain-catalytic), 10 µM.

T12 sequence (Q06187 whole entry): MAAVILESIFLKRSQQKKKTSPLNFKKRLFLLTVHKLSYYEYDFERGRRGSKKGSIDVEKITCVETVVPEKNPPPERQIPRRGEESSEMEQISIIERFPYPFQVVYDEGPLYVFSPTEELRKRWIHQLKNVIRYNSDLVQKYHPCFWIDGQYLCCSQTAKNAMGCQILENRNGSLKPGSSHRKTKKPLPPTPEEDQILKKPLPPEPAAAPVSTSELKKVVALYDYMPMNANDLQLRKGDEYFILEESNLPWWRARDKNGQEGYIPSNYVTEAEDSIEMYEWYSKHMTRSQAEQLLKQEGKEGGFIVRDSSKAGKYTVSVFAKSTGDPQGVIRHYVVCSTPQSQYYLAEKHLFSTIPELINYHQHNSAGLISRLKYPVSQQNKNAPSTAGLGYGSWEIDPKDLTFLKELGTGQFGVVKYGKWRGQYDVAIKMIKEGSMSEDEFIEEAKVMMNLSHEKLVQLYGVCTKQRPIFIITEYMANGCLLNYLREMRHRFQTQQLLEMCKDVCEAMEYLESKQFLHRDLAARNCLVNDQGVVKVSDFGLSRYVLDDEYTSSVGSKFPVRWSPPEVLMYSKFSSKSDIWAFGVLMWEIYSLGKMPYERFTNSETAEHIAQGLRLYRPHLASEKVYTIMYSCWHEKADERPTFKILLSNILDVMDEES

For the compound `CCN1CCN(Cc2ccc(NC(=O)c3ccc(C)c(NC(=O)c4cncc(-c5cccs5)c4)c3)cc2C(F)(F)F)CC1` [ALW-II-41-27], the “score (%)” value is listed as 14% in assay [1], “nb (Hits values higher than 30% were considered negative (no binding: nb))” in assay [8], 14% in [8] (setting [13]) and 0.1% in assay [12]. Also, the remaining binding at 10 µM was over 30% in [2]; 0.65% in assay [3]; 12% in assay [4]; over 30% in [5]; over 30% in assay [6]; 0.15% in assay [7]. Also, the remaining binding at 10 µM in assay [9] (RET) is 0.05%; in [10] (PRKCH) it was 4.6%; in assay [11] (ABL1(M351T)), 0.55%.
In the case of `CCN1CCN(Cc2ccc(NC(=O)c3ccc(C)c(/C=C/c4cnc5[nH]ccc5c4Cl)c3)cc2C(F)(F)F)CC1` [HG-6-63-01, (E)-3-(2-(4-chloro-1H-pyrrolo[2,3-b]pyridin-5-yl)vinyl)-N-(4-((4-ethylpiperazin-1-yl)methyl)-3-(trifluoromethyl)phenyl)-4-methylbenzamide], the “score (%)” value in assay [1] is 0.2%; in [8] (JAK1(Kin.Dom.1), 10 µM) it was “nb (Hits values higher than 30% were considered negative (no binding: nb))”; in assay [8] (JAK1(Kin.Dom.2), 10 µM), 11%; in assay [12], 3.8%. In addition, the remaining binding at 10 µM in assay [2] is 5%; in [3] it was 4.2%; in [4], 0.8%; in assay [5], over 30%; in [6], 14%; in assay [7], 0.7%. Besides, the remaining binding at 10 µM in assay [9] (RET) was 0%; in [10] (PRKCH), over 30%; in assay [11] (ABL1(M351T)) it was 0.1%.
As to `CCN1CCN(Cc2ccc(NC(=O)c3ccc(C)c(C#Cc4cccnc4)c3)cc2C(F)(F)F)CC1` [XMD15-44], the “score (%)” value is reported as 0% in assay [1]; 6.2% in assay [8] (setting [13]); “nb (Hits values higher than 30% were considered negative (no binding: nb))” in [8] (JAK1(JH2domain-pseudokinase), 10 µM); 2% in assay [12]. Besides, the remaining binding at 10 µM was 58% in [2]; 2.5% in [3]; 1% in assay [4]; 75% in assay [5]; over 30% in assay [6]; 0.5% in [7]. The remaining binding at 10 µM in [9] (kinase RET) was determined as 0%; in assay [10] (kinase PRKCH) it was 67%; in assay [11] (ABL1(M351T)-phosphorylated), 2.6%.
